# Test results published in patent publication US20040192638A1, “Method and composition for prolonging the residence time of drugs in the gut” (priority 2001, published 2004).
# Entries after “also recorded” stand apart in the source; their conditions may differ.
# Columns and labels:
# rat small intestine [1] = assay: Sustained Spike Potential (SSP) myoelectric bioassay, infusion into the duodenum via cannula in instrumented uninfected rats; assay type: in vivo; settings: for SSP frequency compared with saline controls / background (in words): 0.2 ml infused into intestinal lumen, FIG. 3; for stimulation / induction of SSP above background levels (in words): infused into intestinal lumen, concentration not stated at the place
# Description: Outbred male rats (Sprague Dawley, Harlan Sprague Dawley, Inc., Indianapolis, Ind.) were housed singly and maintained on a 12-hour light/12-hour dark cycle. All rats used in the bioassay procedure were uninfected with tapeworms. The design and surgical implantation procedure of the intestinal extracellular bipolar electrodes have been described previously (Dwinell et al., 1994, 1997). Briefly, four bipolar electrodes were surgically sutured to the intestinal serosa of each rat according to the methods of Dwinell et at. (1994), which is incorporated herein by reference. Three electrodes (J1-J3) were implanted on the jejunum at 10 cm intervals, with the first electrode (J1) placed 10 cm caudal from the ligament of Treitz and proceeding caudally with J2 and J3. A fourth electrode (designated “I” because it was placed within the ileum) was placed 20 cm orad from the ileo-caecal junction. In addition, a cannula was implanted with one end residing in the lumen of the mid-duodenum, whereas the other end was exteriorized to allow infusion of test fractions.
# All compounds tested were infused into the duodenum via the cannula. Compounds were delivered in 0.2 ml aliquots followed immediately by a 0.2 ml saline cannula rinse. These volumes were used in order to prevent muscle contraction due to stretch from larger bolus volumes. To observe the induction of SSP, intestinal myoelectric activity was recorded for 90 minutes following infusion.
# Consistent with the protocol of Dwinell et al. (1994), intestinal myoelectric activity was not recorded for the first five days after implantation surgery. Control recordings were taken after this period to assure the return of normal myoelectric patterns of the MMC following the cessation of post-surgical ileus. Periodic “control” recordings were made with saline on the intervening days between the tests with tapeworm-conditioned medium (TCM) or its fractions.
# In vivo intestinal myoelectric activity was recorded with a polygraph chart recorder (Grass Instruments, Quincy, Mass.). The myoelectric signal from each electrode was simultaneously recorded on paper and by a personal computer with an I/O board and WINDAQ software (Dataq Instruments, Akron, Ohio) connected to the polygraph recorder by an analog-to-digital converter (Dataq Instruments).
# Food was removed on each recording day at 0800 hour to prevent animal feeding and the subsequent disruption of the interdigestive myoelectric pattern. Recording occurred between 1300 and 1900 hours. All recording sessions for each animal were at least 1.5 hour in duration, and all animals were recorded while awake and unrestrained. Vehicle (0.9% saline or in some cases RPMI 1640) was used as control for test substances.
# Five days after electrode and cannula implantation surgery, three consecutive baseline 90-minute recordings were made on separate days in each rat to confirm the presence of normal intestinal myoelectric activity at the end of the immediate post surgical period.
# Secreted compounds were infused via the duodenal cannula and the frequency of the sustained spike potential (SSP) electrical patterns was determined from recordings of myoelectric activity. […] The third and final phase of the MMC (marked by arrowheads) is a period of >90% spiking and represents a series of contractions migrating orad to caudad along the small intestine. The caudad migration of phase III between electrode sites propels lumenal content toward the caecum.
# Cyclic nucleotides were degraded to their 5′-monophosphate derivatives by incubation with bovine brain phosphodiesterase (PDE; cat. # P-0134, Sigma Co., St. Louis, Mo.).
# [2] = system: Male Ross x Ross broiler chicks; assay: Effect of cGMP on feed conversion ratio in broiler chicks; assay type: in vivo; settings: for Feed Conversion Ration FCR / Feed Intake / Gain: Experiment 1; for Feed Intake / Gain: per pen of 5 chicks, 10 mg cGMP/kg of feed and/or 100 mg succinate/kg of feed, terminated after week 2
# Method: cGMP for use in this Example was manufactured by ICN Biomedicals (Irvine, Calif.), and purchased from Fisher Scientific (Hampton, N.H.). Male Ross x Ross broiler chicks were obtained from Sunnyside Hatchery (Beaver Dam, Wis.). Standard commercial chick mash was used as a base ration. cGMP with and without succinate was dissolved in water and sprayed as a mist onto the basal diet during continuous mixing. […] Diets were prepared 1 to 3 days prior to the start of the experiment and stored in individual plastic buckets (1 bucket/replicate). Chicks were randomly placed into treatment groups with 5 birds per replicate. Chicks were weighed as a group, so each pen of 5 animals represents n=1. Treatments and replicates were randomly assigned (via a random number generator) to pens. Chicks were fed ad libitum and checked daily. Feed intake and pen weight were recorded weekly. Feed conversion ratios were calculated as grams of feed consumed/grams of weight gain in the animals. […] The results are shown in Table 2 for two sets of experiments. Experiment 1 was to run for 3 weeks, but was accidentally disrupted during the third week.
# [3] = Effect of cGMP on drug uptake: atenolol in blood after intraduodenal infusion; assay type: in vivo, rat; settings: atenolol 1 mg/kg intraduodenal; 0.2 ml of 10 mM cGMP 15 minutes prior to and 15 minutes after atenolol; same rats, FIG. 4
# Method: Thus, a model drug, atenolol, was introduced directly into the lumen of the rat's small intestine, and the concentration of atenolol was measured in the blood over time. The blood values and concentration kinetics of the model drug were compared after infusion into the intestine alone or when infused with cGMP. Atenolol was quantified using conventional liquid chromatography/mass spectrometry methods.
# Outbred male rats (Sprague Dawley, Harlan Sprague Dawley, Inc., Indianapolis, Ind.) were housed singly and maintained on a 12-hour light/12-hour dark cycle. All rats used in this bioassay procedure were uninfected with tapeworm. For intestinal infusion, rats (n=2) were lightly sedated, and an indwelling cannula was implanted into the duodenal lumen in each of two rats. […] In brief, the animal preparation involved the following: a cannula was surgically implanted into the duodenal region of each test rat. The cannula extended from the lumen of the duodenum, across the peritoneum, under the skin to the abdominal wall, and finally to an exit from the skin at the nape of the neck. […] During the surgery, both cannulas were filled with sterile saline and plugged with metal pins. Rats were allowed at least five days to recover from implantation surgery before any manipulation occurred. All rats were housed individually after surgery to prevent damage to the cannulas. […]
# rat small intestine [4] = assay: SSP myoelectric recording after intragastric (per os) or intraperitoneal cGMP; assay type: in vivo; settings: data not shown
# Method: For intragastric infusion, rats (n=4) were lightly sedated with Halothane in order to insert a gastric tube per os and infused with 0.3 ml of 10 mM cGMP in saline directly into the lumen of the stomach. Thirty minutes of control myoelectric recording were always performed before infusion of any substance. Five to seven minutes after infusion, the rats were reconnected to the recorder. […] This procedure was repeated with the same rats on a different day with 0.3 ml 100 mM cGMP (equal to 100× the minimal dose required to increase SSP frequency by infusion into the lumen of the small intestine) and on a separate day with 0.3 ml saline as a vehicle control. Post-oral dosing myoelectric recordings were 90 minutes in duration.
# Neither cGMP (1.0 ml of 100 mM) injected intraperitoneally nor cGMP (0.3 ml of 10 mM and 100 mM) introduced into the stomach per os initiated the SSP pattern in the small intestine (data not shown).
# rat small intestine [5] = assay: Effect of cGMP combined with succinate on SSP frequency (Example 3); assay type: in vivo; settings: for SSP stimulation (in words): FIG. 5
# Method: In order to measure intestinal motility, rats were prepared as per […] et al. (1994) as described in the prior Examples. Briefly, electrodes were implanted along the length of the intestine to allow observation of intestinal muscle contraction, and a cannula was implanted in the duodenum to permit the infusion of test substances. After normal intestinal motility was established in each rat, test substances were infused through the duodenal cannula, and myoelectric recordings were used to observe the occurrence of SSP.
# [6] = 10 mM, 0.2 ml infused into duodenum
# [7] = 1 mM, 0.2 ml infused into duodenum
# [8] = grams of feed consumed/grams of weight gain
# [9] = 100 mM, 0.2 ml infused into duodenum
# [10] = Experiment 2, grams of feed consumed/grams of weight gain
smiles,measurement,setting,value
"Nc1nc2c(nc(Br)n2[C@@H]2O[C@@H]3COP(=O)(O)O[C@H]3[C@H]2O)c(=O)[nH]1 [8-Br-cGMP, reference compound]",SSP/Hr (MEAN ± SE),rat small intestine [1]; [6],0.50 ± 0.31 SSP/Hr
same,SSP frequency compared with saline controls / background (in words),rat small intestine [1]; 10 mM,did not significantly increase
"CC(=O)O [Acetate, reference compound]",SSP/Hr (MEAN ± SE),"rat small intestine [1]; 50 mM, 0.2 ml infused into duodenum",0 SSP/Hr
same,stimulation / induction of SSP above background levels (in words),rat small intestine [1],lack of SSP induction
"N[C@@H](C(=O)O)[C@@H](O)[C@H](O)[C@H](O)CO [D-Glucosaminic Acid, D-glucosaminic acid, reference compound]",SSP/Hr (MEAN ± SE),"rat small intestine [1]; 0.25 mM, 0.2 ml infused into duodenum",0 SSP/Hr
same,stimulation / induction of SSP above background levels (in words),rat small intestine [1],lack of SSP induction
"Nc1nc2nc[nH]c2c(=O)[nH]1 [Guanine suspension, guanine, reference compound]",SSP/Hr (MEAN ± SE),rat small intestine [1]; [6],0 SSP/Hr
"Nc1nc2nc[nH]c2c(=O)[nH]1 [Guanine, guanine, reference compound]",SSP/Hr (MEAN ± SE),"rat small intestine [1]; 0.1 mM, 0.2 ml infused into duodenum",1.33 SSP/Hr
same,SSP/Hr (MEAN ± SE),rat small intestine [1]; [7],1.33 ± 0.94 SSP/Hr
same,SSP/Hr (MEAN ± SE),rat small intestine [1]; [6],0.33 ± 0.24 SSP/Hr
same,SSP frequency compared with saline controls / background (in words),rat small intestine [1]; 10 mM,not significantly different from saline controls
"Nc1nc2c(ncn2[C@@H]2O[C@H](COP(=O)(O)O)[C@@H](O)[C@H]2O)c(=O)[nH]1 [Guanosine Monophosphate, reference compound]",SSP/Hr (MEAN ± SE),rat small intestine [1]; [6],0.5 ± 0.3 SSP/Hr
"Nc1nc2c(ncn2[C@@H]2O[C@H](CO)[C@@H](O)[C@H]2O)c(=O)[nH]1 [Guanosine, guanosine, reference compound]",SSP/Hr (MEAN ± SE),rat small intestine [1]; [6],0.50 ± 0.28 SSP/Hr
same,SSP frequency compared with saline controls / background (in words),rat small intestine [1]; 10 mM,not significantly different from saline controls
"CC(O)C(=O)O (stereo not drawn) [Lactic Acid, reference compound]",SSP/Hr (MEAN ± SE),"rat small intestine [1]; 20 mM, 0.2 ml infused into duodenum",0 SSP/Hr
same,stimulation / induction of SSP above background levels (in words),rat small intestine [1],lack of SSP induction
"O=C(O)CCC(=O)O [Succinate, succinic acid]",Feed Conversion Ration FCR,[2]; [8],1.561 ± 0.073
same,Feed Intake,[2],2127 ± 257
same,Gain,[2],1372 ± 194
same,SSP frequency / SSP induction compared with saline controls (in words),rat small intestine [1]; 100 mM infused into intestinal lumen,failure
same,SSP/Hr (MEAN ± SE),rat small intestine [1]; [9],0.33 ± 0.27 SSP/Hr
same,stimulation / induction of SSP above background levels (in words),rat small intestine [1],does not alter motility
same,stimulation / induction of SSP above background levels (in words),rat small intestine [1]; listed as succinate,lack of SSP induction
"Nc1nc2c(ncn2C2OC3COP(=O)(O)OC3C2O)c(=O)[nH]1 (stereo not drawn) [cGMP, guanosine cyclic 3′, 5′-hydrogen phosphate]","amount of atenolol in the blood over the 20-minute period, with cGMP versus atenolol alone",[3],almost doubles
same,initiation of SSP pattern in the small intestine (in words),rat small intestine [4]; 0.3 ml of 10 mM into the stomach per os,lack of intestinal response
same,initiation of SSP pattern in the small intestine (in words),rat small intestine [4]; 0.3 ml of 100 mM into the stomach per os,lack of intestinal response
same,initiation of SSP pattern in the small intestine (in words),rat small intestine [4]; 1.0 ml of 100 mM injected intraperitoneally,lack of intestinal response
same,SSP stimulation (in words),rat small intestine [5]; 2.8 nM cGMP alone,did not stimulate SSP above the background; also recorded: generally does not produce
same,SSP stimulation (in words),rat small intestine [5]; 10 mM cGMP alone,produces
same,concentrations of cGMP alone incapable of stimulating SSP,rat small intestine [5]; cGMP infused alone,below 1 mM
same,cGMP concentration required to activate SSP response,rat small intestine [5]; without succinate,about 10 mM
same,Feed Conversion Ration FCR,[2]; [8],1.535 ± 0.094
same,Feed Intake,[2],2334 ± 144
same,Gain,[2],1548 ± 65
same,FCR Week 1,[2]; [10],1.635 ± 0.093
same,FCR Week 2,[2]; [10],1.459 ± 0.058
same,FCR Week 3,[2]; [10],1.580 ± 0.059
same,SSP/Hr (MEAN ± SE),"rat small intestine [1]; 100 nM, 0.2 ml infused into duodenum",0 SSP/Hr
same,SSP/Hr (MEAN ± SE),"rat small intestine [1]; 1 μM, 0.2 ml infused into duodenum",0 SSP/Hr
same,SSP/Hr (MEAN ± SE),"rat small intestine [1]; 10 μM, 0.2 ml infused into duodenum",0.5 ± 0.25 SSP/Hr
same,SSP/Hr (MEAN ± SE),"rat small intestine [1]; 100 μM, 0.2 ml infused into duodenum",0.66 ± 0.38 SSP/Hr
same,SSP/Hr (MEAN ± SE),rat small intestine [1]; [7],0.80 ± 0.18 SSP/Hr
same,SSP/Hr (MEAN ± SE),"rat small intestine [1]; 5 mM, 0.2 ml infused into duodenum",1.60 ± 0.38 SSP/Hr
same,SSP/Hr (MEAN ± SE),rat small intestine [1]; 10 mM + 1 Unit PDE (incubated 30° C. 16 hours before infusion),0 SSP/Hr
same,ability to stimulate SSP after incubation with phosphodiesterase (PDE) before infusion (in words),rat small intestine [1]; 10 mM cGMP solution or TCM incubated in PDE before bioassay,lose their ability to stimulate SSP; also recorded: control values
same,SSP/Hr (MEAN ± SE),rat small intestine [1]; [6],2.0 ± 0.38 SSP/Hr
same,SSP frequency compared with saline controls / background (in words),rat small intestine [1]; 10 mM,significantly increased
same,SSP/Hr (MEAN ± SE),"rat small intestine [1]; 10 mM, boiled before infusion",1.0 ± 0.47 SSP/Hr
same,SSP/Hr (MEAN ± SE),rat small intestine [1]; [9],1.50 ± 0.46 SSP/Hr
same,SSP/Hr (MEAN ± SE),"rat small intestine [1]; 0.5 M, 0.2 ml infused into duodenum",1.25 ± 0.41 SSP/Hr
same,lumenal dose range with significant increase in SSP frequency,"rat small intestine [1]; FIG. 2, versus saline, Student t-test",1 to 100 mM
same,stimulation / induction of SSP above background levels (in words),rat small intestine [1],initiated SSP myoelectric patterns
"O=c1[nH]cnc2c1ncn2[C@@H]1O[C@@H]2COP(=O)(O)O[C@H]2[C@H]1O [cIMP, reference compound]",stimulation / induction of SSP above background levels (in words),rat small intestine [1],no response
"O=c1ccn([C@@H]2O[C@@H]3COP(=O)(O)O[C@H]3[C@H]2O)c(=O)[nH]1 [cUMP, reference compound]",stimulation / induction of SSP above background levels (in words),rat small intestine [1],no response
